Results: patent US6447749B1, “Perfluoro-alkyl containing dye molecules and galencial formulations” (Schering Aktiengesellschaft, priority 1999, dated 2002)

What was measured:
[1] = Photophysical characterization: fluorescence properties and fluorescence quantum yield (SPEX-fluorolog, relative to indocyanine green); type: physicochemical
Description: (§1) The determination of the absorption maxima and extinction coefficients was carried out with a Lambda 2-spectrometer (Perkin-Elmer Company). The fluorescence properties were determined on a SPEX-fluorolog (Instruments S. A. Company, photomultiplier Hamamatsu PM928, excitation 350W xenon lamp). the determination of the fluorescence quantum yield was carried out relative to indocyanine green (O=13% in DMSO) by excitation at 585 nm (dyes with p=2) or 685 nm (dyes with p=3), in each case of solutions of concentration 2 μM in dye, and correction with the spectral sensitivity of lamp and detector.

[2] = Photophysical characterization: absorption maxima and extinction coefficients (Lambda 2-spectrometer); type: physicochemical
Description: as §1

lymph nodes [3] = experiment: Visualization of lymph nodes in situ after interstitial administration; type: in vivo, rat; conditions: five hours after interstitial administration
Description: 0.1 ml of a formulation that contained 1 mmol/L of dye 8 and 19 mmol/L of 6-[1-O-α-D-mannopyranosyl)-hexanoic acid N-(3-oxa-1H,1H,2H,2H,4H,4H,5H,5H-perfluorotridecyl)-amide was administered interstitially in a skin fold between the toes of the right rear extremity. Five hours after administration, the test animal was sacrificed and opened abdominally. Based on the fluorescence image, the lymph nodes can be localized in situ and the lymph tracts can be visualized. […] The fluorescence of the substances was stimulated by irradiation of the abdominally-opened animal with near-infrared light of wavelength 740 nm, which was produced with an Nd:YAG laser. The fluorescence radiation was detected at a wavelength of >800 nm by an intensified CCD-camera, and the fluorescence images were stored digitally.

lymph nodes [4] = experiment: Fluorescence coloring of lymph nodes after interstitial administration (monosaccharide formulation); type: in vivo; conditions: 5 mol % of dye 8 and 95 mol % mannopyranosyl perfluoroalkyl amide
Description: From the substance, 0.1 ml of a solution that contained 1 mmol/L of dye 8 and 19 mmol/L of 6-[1-O-α-D-mannopyranosyl]-hexanoic acid N-(3-oxa-1H,1H,2H,2H,4H,4H,5H,5H-perfluorotridecyl)-amide was administered interstitially in a skin fold between the toes of the right rear extremity of the animal. Five hours after administration, the lymph nodes of the right and left sides of the body were prepared, and a fluorescence image was recorded. The fluorescence of the substances was stimulated by irradiation of the lymph nodes with near-infrared light of wavelength 740 nm, which was produced with an Nd:YAG laser. The fluorescence radiation was detected at a wavelength of >800 nm by an intensified CCD-camera, and the fluorescence images were stored digitally.

regional lymph nodes [5] = experiment: Interstitial near-infrared lymphography of guinea pigs; type: in vivo; conditions: guinea pig, formulation 5 mol % of dye 8/95 mol % Gd complex, interstitial/intracutaneous, 0.3 μmol/kg of 8
Description: The imaging properties of the formulations according to the invention were studied in vivo in guinea pigs. […] The fluorescence of the substances was stimulated by irradiation of the animals with near-infrared light of wavelength 740 nm, which was produced with an Nd:YAG laser. The fluorescence radiation was detected at a wavelength of >800 nm by an intensified CCD-camera, and the fluorescence images were stored digitally.
0.1 ml of a stock solution with 1 mmol/L of 8 was injected into a skin fold between the toes of the right rear extremity, and the final concentration was 0.3 μmol/kg of 8.

lymph nodes [6] = experiment: Fluorescence coloring of lymph nodes after intravenous administration; type: in vivo; conditions: rat; 5 hours after intravenous administration; 0.2 ml of 0.5 mmol/L dye 8 and 9.5 mmol/L Gd complex; excitation 740 nm, detection >800 nm
Description: From the substance, 0.2 ml of a solution that contained 0.5 mmol/L of dye 8 and 9.5 mmol/L of 10-[1-methyl-2-oxo-3-aza-5-oxo-5-{4-perfluorooctylsulfonyl-piperazin-1-yl}-pentyl]-1,4,7-tris(carboxymethyl)-1,4,7,10-tetraazacyclododecane, was administered intravenously in a caudal vein of the rat. Five hours after administration, the lymph nodes were prepared and a fluorescence image was recorded. The fluorescence of the substances was stimulated by irradiation of the lymph nodes with near-infrared light of wavelength 740 nm, which was produced with an Nd:YAG laser. The fluorescence radiation was detected at a wavelength of >800 nm by an intensified CCD-camera, and the fluorescence images were stored digitally.

regional lymph nodes [7] = experiment: Coloring of regional lymph nodes after interstitial administration; type: in vivo; conditions: guinea pig; formulation 5 mol % of dye 8/95 mol % Gd complex; after interstitial/intracutaneous administration, lymph nodes prepared ex vivo; listed as 8, sodium salt
Description: After the interstitial near-infrared lymphography was completed, the regional lymph nodes were prepared in the area of the administration site. […] This coloring can be used for the intraoperative diagnosis for the identification of the draining lymph nodes of a certain tissue area and for differentiating the lymph nodes from the surrounding tissue.

[8] = dyes 7-14 table, formulation with Gd-complex perfluoroalkyl derivative (WO 97/26017 Ex. 33), 5 mol % of dye
[9] = formulation with Gd-complex perfluoroalkyl derivative (WO 97/26017 Ex. 33), 1 mol % of dye
[10] = formulation with Gd-complex perfluoroalkyl derivative (WO 97/26017 Ex. 33), 2 mol % of dye
[11] = formulation with Gd-complex perfluoroalkyl derivative (WO 97/26017 Ex. 33), 5 mol % of dye
[12] = formulation with Gd-complex perfluoroalkyl derivative (WO 97/26017 Ex. 33), 10 mol % of dye
[13] = three-component formulation: 5 mol % of dye, 0 mol % of Gd complex, 95 mol % of monosaccharide
[14] = three-component formulation: 5 mol % of dye, 10 mol % of Gd complex, 85 mol % of monosaccharide
[15] = three-component formulation: 5 mol % of dye, 30 mol % of Gd complex, 65 mol % of monosaccharide
[16] = three-component formulation: 5 mol % of dye, 50 mol % of Gd complex, 45 mol % of monosaccharide
[17] = three-component formulation: 5 mol % of dye, 70 mol % of Gd complex, 25 mol % of monosaccharide
[18] = three-component formulation: 5 mol % of dye, 90 mol % of Gd complex, 5 mol % of monosaccharide
[19] = five hours after interstitial administration (right rear extremity)

SMILES: CC1(C)C(=CC=CC=CC=CC2=[N+](CCCCS(=O)(=O)[O-])c3ccc(C(=O)N(CCOCCC(F)(F)C(F)(F)C(F)(F)C(F)(F)C(F)(F)C(F)(F)C(F)(F)C(F)(F)F)CC(O)CO)cc3C2(C)C)N(CCCCS(=O)(=O)[O-])c2ccccc21.[Na+] (centres unmarked) [Dye 10, 5-{N-[2-(3,3,4,4,5,5,6,6,7,7,8,8,9,9,10,10,10-heptadecafluorodecyloxy)ethyl]-N-(2,3-dihydroxypropyl)aminocarbonyl}-2-{7-[1,3-dihydro-3,3-dimethyl-1-(4-sulfobutyl)-2H-indol-2-ylidene]-1,3,5-heptatrienyl}-3,3-dimethyl-1-(4-sulfobutyl)-3H-indolium, internal salt, sodium salt]
- Fluorescence max. [1, 8]: 788 nm
- Fluorescence quantum yield ([1]; dyes 7-14 table, formulation with Gd-complex perfluoroalkyl derivative (WO 97/26017 Ex. 33), 5 mol % of dye, 2 μM in dye): 0.14
- Fluorescence max. [1, 9]: 784 nm
- Fluorescence quantum yield ([1]; formulation with Gd-complex perfluoroalkyl derivative (WO 97/26017 Ex. 33), 1 mol % of dye, 2 μM in dye): 0.23
- Fluorescence max. [1, 10]: 785 nm
- Fluorescence quantum yield ([1]; formulation with Gd-complex perfluoroalkyl derivative (WO 97/26017 Ex. 33), 2 mol % of dye, 2 μM in dye): 0.23
- Fluorescence max. [1, 11]: 788 nm
- Fluorescence quantum yield ([1]; formulation with Gd-complex perfluoroalkyl derivative (WO 97/26017 Ex. 33), 5 mol % of dye, 2 μM in dye): 0.14
- Fluorescence max. [1, 12]: 790 nm
- Fluorescence quantum yield ([1]; formulation with Gd-complex perfluoroalkyl derivative (WO 97/26017 Ex. 33), 10 mol % of dye, 2 μM in dye): 0.03
- Fluorescence maximum [1, 13]: 800 nm
- Fluorescence quantum yield [1, 13]: 0.16
- Fluorescence maximum [1, 14]: 800 nm
- Fluorescence quantum yield [1, 14]: 0.11
- Fluorescence maximum [1, 15]: 800 nm
- Fluorescence quantum yield [1, 15]: 0.14
- Fluorescence maximum [1, 16]: 798 nm
- Fluorescence quantum yield [1, 16]: 0.26
- Fluorescence maximum [1, 17]: 794 nm
- Fluorescence quantum yield [1, 17]: 0.18
- Fluorescence maximum [1, 18]: 793 nm
- Fluorescence quantum yield [1, 18]: 0.13
- Absorption max. [2, 8]: 753 nm
- Extinction coefficient [2, 8]: 120,800 L mol^−1 cm^−1
- Absorption max. [2, 9]: 755 nm
- Extinction coefficient [2, 9]: 150,500 L mol^−1 cm^−1
- Absorption max. [2, 10]: 755 nm
- Extinction coefficient [2, 10]: 148,800 L mol^−1 cm^−1
- Absorption max. [2, 11]: 753 nm
- Extinction coefficient [2, 11]: 120,800 L mol^−1 cm^−1
- Absorption max. [2, 12]: 751 nm
- Extinction coefficient [2, 12]: 108,500 L mol^−1 cm^−1
- Absorption maximum [2, 13]: 760 nm
- Extinction coefficient [2, 13]: 90500 L/mol/cm
- Absorption maximum [2, 14]: 760 nm
- Extinction coefficient [2, 14]: 102700 L/mol/cm
- Absorption maximum [2, 15]: 760 nm
- Extinction coefficient [2, 15]: 107900 L/mol/cm
- Absorption maximum [2, 16]: 756 nm
- Extinction coefficient [2, 16]: 108700 L/mol/cm
- Absorption maximum [2, 17]: 756 nm
- Extinction coefficient [2, 17]: 111100 L/mol/cm
- Absorption maximum [2, 18]: 755 nm
- Extinction coefficient [2, 18]: 112500 L/mol/cm
- visualization of lymph nodes and lymph tract in situ by fluorescence (lymph nodes [3]; abdominally-opened rat, 0.1 ml of 1 mmol/L dye 8 and 19 mmol/L mannopyranosyl perfluoroalkyl amide): visualized based on a fluorescence signal
- visual coloring of lymph nodes in situ (lymph nodes [3]; rat, 5 mol % of dye 8 and 95 mol % mannopyranosyl perfluoroalkyl amide): green coloring
- fluorescence signal of lymph nodes, left side of the body (lymph nodes [4]; [19]): no lymph nodes of the left side of the body
- fluorescence signal of lymph nodes, right (administered) side of the body (lymph nodes [4]; [19]): Most lymph nodes of the right (administered) side of the body showed a fluorescence signal
- coloring of the fluorescence-labeled lymph nodes (lymph nodes [4]; five hours after interstitial administration): greenish-colored
- fluorescence signal at the injection site (regional lymph nodes [5]; abdominal view, 120 minutes after administration): strong fluorescence signal
- fluorescence signal at the injection site (regional lymph nodes [5]; right lateral view, 117 minutes after administration): strong fluorescence signal
- fluorescence signal of axillary, inguinal and popliteal lymph nodes (lymph nodes [6]): All lymph nodes showed a clear fluorescence signal
- coloring of regional (inguinal) lymph nodes (regional lymph nodes [7]): clearly visible green-coloring
